Experimental data: patent US20080188490A1, “Acetylene Derivatives” (priority 2005, published 2008)
Structures can show the parent of a compound that is named as a salt.

Tests used:
[1] = molecular target: T1, hmGluR5 (Homo sapiens, UniProt P41594); assay: inhibition of quisqualate-induced inositol phosphate turnover in hmGluR5 expressing cells; type: cell-based; conditions: agonist quisqualate, read-out: IC50 concentration, inhibition of quisqualate-induced inositol phosphate turnover
T1 construct: expressed in transfected cells
Description: This can be determined in vitro for example at recombinant human metabotropic glutamate receptors, especially PLC-coupled subtypes thereof such as mGluR5, using different procedures like, for example, measurement of the inhibition of the agonist induced elevation of intracellular Ca^2+ concentration in accordance with L. P. Daggett et al., Neuropharm. Vol. 34, pages 871-886 (1995), P. J. Flor et al., J. Neurochem. Vol. 67, pages 58-63 (1996) or by determination to what extent the agonist induced elevation of the inositol phosphate turnover is inhibited as described by T. Knoepfel et al., Eur. J. Pharmacol. Vol. 288, pages 389-392 (1994), L. P. Daggett et al., Neuropharm. Vol. 67, pages 58-63 (1996) and references cited therein. Isolation and expression of human mGluR subtypes are described in U.S. Pat. No. 5,521,297. Selected agents of the invention show IC50 values for the inhibition of the agonist (e.g. glutamate or quisqualate) induced elevation of intracellular Ca2+ concentration or the agonist (e.g. glutamate or quisqualate) induced inositol phosphate turnover, measured in recombinant cells expressing hmGluR5a of about 1nM to about 50 μM.

[2] = tested on: stress-induced hyperthermia; assay: stress-induced hyperthermia in mice; type: in vivo; conditions: control hyperthermia 0.98±0.08° C.
Procedure: A. Lecci et al., Psychopharmacol. 101, 255-261]. At doses of about 0.1 to about 30 mg/kg p.o., selected agents of the invention reverse the stress-induced hyperthermia.
With (±)-(1R,3R)-3-(4-Chloro-phenylamino)-1-(3-chloro-phenylethynyl)-cyclohexanol, a stress-induced hyperthermia of 0.98±0.08° C. was reduced to 0.66±0.06° C. at 1 mg/kg p.o., to […] at 3 mg/kg p.o.; to 0.58±0.06° C. at 10 mg/kg p.o. and to 0.33±0.04° C. at 30 mg/kg p.o. (p<0.05; p<0.0011; p<0.01; p<0.001 respectively).

T1 sequence (P41594 21-1180 isoform P41594-2 limits assumed): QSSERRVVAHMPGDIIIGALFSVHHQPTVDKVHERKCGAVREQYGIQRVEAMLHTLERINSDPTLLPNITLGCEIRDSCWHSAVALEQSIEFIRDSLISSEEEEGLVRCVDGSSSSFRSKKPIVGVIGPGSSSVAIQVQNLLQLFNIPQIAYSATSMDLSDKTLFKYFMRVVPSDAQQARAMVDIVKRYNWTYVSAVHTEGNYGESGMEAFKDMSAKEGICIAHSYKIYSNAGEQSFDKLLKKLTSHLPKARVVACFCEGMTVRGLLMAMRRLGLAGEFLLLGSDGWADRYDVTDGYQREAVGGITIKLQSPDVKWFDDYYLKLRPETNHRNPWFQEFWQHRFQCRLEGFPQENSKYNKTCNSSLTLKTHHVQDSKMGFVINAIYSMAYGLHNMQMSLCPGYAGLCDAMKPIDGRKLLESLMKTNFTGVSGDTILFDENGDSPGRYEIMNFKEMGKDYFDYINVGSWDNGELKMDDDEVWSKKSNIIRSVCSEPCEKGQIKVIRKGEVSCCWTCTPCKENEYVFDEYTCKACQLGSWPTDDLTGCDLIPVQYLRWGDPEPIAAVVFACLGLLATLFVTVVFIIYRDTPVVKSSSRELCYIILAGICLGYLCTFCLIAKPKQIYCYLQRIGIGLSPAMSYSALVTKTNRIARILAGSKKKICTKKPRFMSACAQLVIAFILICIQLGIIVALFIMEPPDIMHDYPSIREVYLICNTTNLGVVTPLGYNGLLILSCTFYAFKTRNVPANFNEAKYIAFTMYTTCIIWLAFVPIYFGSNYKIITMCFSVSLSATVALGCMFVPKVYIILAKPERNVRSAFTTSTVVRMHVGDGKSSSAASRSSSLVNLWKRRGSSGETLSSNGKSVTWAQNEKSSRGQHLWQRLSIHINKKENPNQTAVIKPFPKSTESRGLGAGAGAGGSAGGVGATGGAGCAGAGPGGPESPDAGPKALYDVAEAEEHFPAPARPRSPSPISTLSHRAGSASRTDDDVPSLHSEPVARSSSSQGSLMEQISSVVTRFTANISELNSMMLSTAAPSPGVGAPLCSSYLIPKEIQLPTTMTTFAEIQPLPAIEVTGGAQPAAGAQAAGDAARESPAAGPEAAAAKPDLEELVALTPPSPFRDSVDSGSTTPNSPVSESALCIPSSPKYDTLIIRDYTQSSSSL

## O[C@]1(C#Cc2cccc(Cl)c2)CCC[C@@H](Nc2ccc(Cl)cc2)C1 (racemic) (as salt: hydrochloride) [Example 1, (±)-(1R,3R)-3-(4-Chloro-phenylamino)-1-(3-chloro-phenylethynyl)-cyclohexanol]
other
  melting point: 153 to 163 °C

## O[C@]1(C#Cc2cccc(Cl)c2)CCC[C@@H](Nc2ccc(Cl)cc2)C1 (racemic) [Example 1, (±)-(1R,3R)-3-(4-Chloro-phenylamino)-1-(3-chloro-phenylethynyl)-cyclohexanol]
[1]
  IC50: 1.6 µM
[2]; 1 mg/kg p.o., p<0.05
  stress-induced hyperthermia after treatment: 0.66±0.06 °C
[2]; 3 mg/kg p.o., p<0.0011
  stress-induced hyperthermia after treatment: 0.43±10 °C
[2]; 10 mg/kg p.o., p<0.01
  stress-induced hyperthermia after treatment: 0.58±0.06 °C
[2]; 30 mg/kg p.o., p<0.001
  stress-induced hyperthermia after treatment: 0.33±0.04 °C

## O[C@@]1(C#Cc2cccc(Cl)c2)CCC[C@H](Nc2cc(-c3ccco3)[nH]n2)C1 [Example 1.26, (1S,3S)-1-(3-Chloro-phenylethynyl)-3-(5-furan-2-yl-1H-pyrazol-3-ylamino)-cyclohexanol]
other
  melting point: 83 to 88 °C

## O[C@]1(C#Cc2cccc(Cl)c2)CCC[C@@H](Nc2cc(-c3ccco3)[nH]n2)C1 [Example 1.27, (1R,3R)-1-(3-Chloro-phenylethynyl)-3-(5-furan-2-yl-1H-pyrazol-3-ylamino)-cyclohexanol]
other
  melting point: 78 to 85 °C
